Results on 39 compounds are retold here after patent US8501713B2, “Drug combinations for the treatment of duchenne muscular dystrophy” (Summit Corporation PLC, priority 2007, dated 2013).

Where only a bound is given, the exact number is not on record here.

One assay deals with Utrophin A promoter linked to a luciferase reporter gene. Kind of assay: Luciferase reporter assay (murine H2K cells). Type of assay: cell-based. The note with it: Mus musculus, H2K mdx, luciferase level relative to control; H2K/mdx/Utro A reporter cells; compound 10 μM final concentration; read-out: Activity. The method in brief: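 Compound at 10 μM final was applied for 48 hrs to plated H2K mdx myoblasts (33° C, 10% CO2, interferon-containing medium) bearing a luciferase gene under the utrophin A promoter. Luminescence from lysed cells served as read-out.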
(In general: A reporter such as luciferase makes a cellular process visible.)
Consider `CC(=O)Nc1ccc(-c2ccc3[nH]c(-c4ccc(Cl)cc4)cc3c2)cc1` [Example 367, N-(4-(2-(4-chlorophenyl)-1H-indol-5-yl)phenyl)acetamide], for which the activity at 10 µM was less than 200%. Turning to `CCCCNc1ccc2oc(-c3ccccc3)nc2c1` [Example 167, N-butyl-2-phenylbenzo[d]oxazol-5-amine], the activity at 10 µM is more than 401%.

With `CC(C)C(=O)Nc1ccc2nc(-c3ccc(Cl)cc3)oc2c1` [Example 255, N-(2-(4-chlorophenyl)benzo[d]oxazol-6-yl)isobutyramide], the activity at 10 µM was more than 401%. On the same count and under the same terms, next, `Nc1ccc2oc(NCc3ccc(Cl)cc3)nc2c1` [Example 381, N2-(4-chlorobenzyl)benzo[d]oxazole-2,5-diamine]: less than 200%; `Cc1ccc(-c2nc3cc(NC(=O)c4cccnc4)ccc3o2)cc1` [Example 113, N-(2-p-tolylbenzo[d]oxazol-5-yl)nicotinamide]: less than 200%. The same measure, in the same setting: under `c1ccc(-c2ccc3oc(-c4ccccc4)nc3c2)cc1` [Example 85, 2,5-diphenylbenzo[d]oxazole] stands 301 to 400%; under `COc1ccccc1C(=O)Nc1ccc2oc(-c3ccccc3)nc2c1` [Example 26, 2-methoxy-N-(2-phenylbenzo[d]oxazol-5-yl)benzamide], less than 200%; under `COc1ccc(-c2nc3cc(NC(C)=O)ccc3o2)cc1` [Example 135, N-(2-(4-methoxyphenyl)benzo[d]oxazol-5-yl)acetamide], 301 to 400%. `CN[C@@H](C)C(=O)Nc1ccc2oc(-c3ccc(Cl)cc3)nc2c1` [Example 377, (S)-N-(2-(4-chlorophenyl)benzo[d]oxazol-5-yl)-2-(methylamino)propanamide]: the activity at 10 µM is 301 to 400%. On the same count and under the same terms, next, `CC(C)C(=O)Nc1ccc2sc(-c3ccc(Cl)cc3)nc2c1` [Example 277, N-(2-(4-chlorophenyl)benzo[d]thiazol-5-yl)isobutyramide]: 301 to 400%; `O=C(Nc1ccc2oc(-c3ccccc3)nc2c1)c1ccncc1` [Example 22, N-(2-phenylbenzo[d]oxazol-5-yl)isonicotinamide]: less than 200%. The same measure, in the same setting: under `Nc1ccc2nc(-c3ccccc3)oc2c1` [Example 155, 2-phenylbenzo[d]oxazol-6-amine] stands 301 to 400%; under `O=C(Nc1ccc2oc(-c3ccccc3)nc2c1)c1ccco1` [Example 13, N-(2-phenylbenzo[d]oxazol-5-yl)furan-2-carboxamide], 201 to 300%. The same measure, in the same setting: under `CC(C)C(=O)Nc1ccc2oc(-c3cc(Cl)cc(Cl)c3)nc2c1` [Example 271, N-(2-(3,5-dichlorophenyl)benzo[d]oxazol-5-yl)isobutyramide] stands 201 to 300%; under `CCCC(=O)Nc1ccc2oc(-c3ccccc3F)nc2c1` [Example 242, N-(2-(2-fluorophenyl)benzo[d]oxazol-5-yl)butyramide], less than 200%; under `Cc1ccc(-c2nc3ccc(N)cc3o2)cc1` [Example 237, 2-p-tolylbenzo[d]oxazol-6-amine], more than 401%. For the compound `CC(C)(C)OC(=O)NCCC(=O)Nc1ccc2oc(-c3ccccc3)nc2c1` [Example 246, tert-butyl 3-oxo-3-(2-phenylbenzo[d]oxazol-5-ylamino)propylcarbamate], the activity at 10 µM is less than 200%. For the compound `CC(C)C(=O)Nc1ccc2oc(SCc3ccc(Cl)cc3)nc2c1` [Example 383, N-(2-(4-chlorobenzylthio)benzo[d]oxazol-5-yl)isobutyramide], the activity at 10 µM is less than 200%.

On to `O=S(=O)(Nc1ccc2oc(-c3ccccc3)nc2c1)c1ccccc1` [Example 221, N-(2-phenylbenzo[d]oxazol-5-yl)benzenesulfonamide], for which the activity at 10 µM was less than 200%. Take `Cc1ccc(-c2nc3cc(NC(=O)C(C)C)ccc3s2)cc1` [Example 217, N-(2-p-tolylbenzo[d]thiazol-5-yl)isobutyramide]: the activity at 10 µM was more than 401%. For `O=C(Nc1ccc2oc(-c3ccc(Cl)cc3)nc2c1)c1ccc(C(F)(F)F)cc1` [Example 94, N-(2-(4-chlorophenyl)benzo[d]oxazol-5-yl)-4-(trifluoromethyl)benzamide], the activity at 10 µM was less than 200%. Regarding `CC(=O)c1ccc2oc(-c3ccc(Cl)cc3)nc2c1` [Example 420, 1-(2-(4-chlorophenyl)benzo[d]oxazol-5-yl)ethanone], the activity at 10 µM is more than 401%.

Consider `Cc1ccc(-c2nc3cc(C(=O)NC(C)C)ccc3o2)cc1` [Example 181, N-isopropyl-2-p-tolylbenzo[d]oxazole-5-carboxamide], for which the activity at 10 µM was in the range of 301 to 400%. Regarding `CCN(CC)c1ccc(-c2nc3cc(NC(=O)c4ccc(-c5ccccc5)cc4)ccc3o2)cc1` [Example 72, N-(2-(4-(diethylamino)phenyl)benzo[d]oxazol-5-yl)biphenyl-4-carboxamide], the activity at 10 µM was less than 200%. With `CCS(=O)(=O)c1ccc2oc(-c3ccc(C4CCCCC4)cc3)nc2c1` [Example 425, 2-(4-cyclohexylphenyl)-5-(ethylsulfonyl)benzo[d]oxazole], the activity at 10 µM is less than 200%. Regarding `CCC(=O)Nc1ccc2oc(-c3ccc(C(F)(F)F)cc3)nc2c1` [Example 124, N-(2-(4-(trifluoromethyl)phenyl)benzo[d]oxazol-5-yl)propionamide], the activity at 10 µM was less than 200%. The same measure, in the same setting: next, `CCS(=O)(=O)c1ccc2oc(-c3cccs3)nc2c1` [Example 429, 5-(ethylsulfonyl)-2-(thiophen-2-yl)benzo[d]oxazole]: 201 to 300%.

Still in this assay, the particulars now being: luciferase level relative to control; H2K/mdx/Utro A reporter cells; compound 10 μM final concentration.
For the compound `COc1ccc(-c2ccc3oc(-c4ccc(Cl)cc4)nc3c2)cn1` [Example 306, 2-(4-chlorophenyl)-5-(6-methoxypyridin-3-yl)benzo[d]oxazole], the Activity entry is reported as “+ (Up to 200% relative to control)”.

Still in this assay, the particulars now being: luciferase reporter assay in murine H2K cells; classified relative to control.
On to `Cc1cc(-c2nc3ccccc3o2)ccc1[N+](=O)[O-]` [Example 607], for which the Activity result is listed as “++++ (Above 401% relative to control)”. Turning to `CN(C)S(=O)(=O)c1ccc2nc(NC(=O)c3cccs3)sc2c1` [Example 683], the Activity result was “++ (Between 201% and 300% relative to control)”.

`O=C(Nc1ccccc1F)c1sc2ccccc2c1Cl` [Example 621]: the Activity entry is “++++ (Above 401% relative to control)”. On the same count and under the same terms, next, `Cc1ccc(-c2nc3ccccc3n2C)cc1` [Example 588]: “+++ (Between 301% and 400% relative to control)”; `Cc1ccc2nc(-c3ccc(C)c(N)c3)oc2c1` [Example 635]: “+++ (Between 301% and 400% relative to control)”. Turning to `Nc1ccc2oc(-c3ccc(Cl)c(Cl)c3)nc2c1` [Example 480], the Activity entry is “++ (Between 201% and 300% relative to control)”. Still for that read-out and setting: next, `CCc1ccc2oc(-c3cc(N)ccc3O)nc2c1` [Example 551]: “+ (Up to 200% relative to control)”; `CC(=O)Nc1ccc(-c2nc3cc(Cl)c(NC(C)=O)cc3[nH]2)cc1` [Example 556]: “+ (Up to 200% relative to control)”. The same measure, in the same setting: next, `COc1cccc(-c2nc3ccccc3s2)c1` [Example 606]: “+++ (Between 301% and 400% relative to control)”; `COc1ccc(-c2nc3cc(N)ccc3[nH]2)cc1` [Example 535]: “++ (Between 201% and 300% relative to control)”; `Cc1cc(C)cc(-c2nc3cc(N)ccc3o2)c1` [Example 482]: “+ (Up to 200% relative to control)”.
